Data set [1] has as its system rat liver. The data set is described as follows: Serum clinical chemistry: alanine aminotransferase (ALT) after 3-day treatment. From the text:
(§1) After 3-day treatment, rat liver samples were collected for RNA extraction and histo-pathology examination. Sera from the same rats were subjected to clinical chemistry monitoring.
(§2) Liver injury was identified by the individual clinical chemistry measurement if its level was outside +/− two standard deviations of the averaged level of normal animals.

For data set [2], the system named is rat liver. The data set is described as follows: Serum clinical chemistry: aspartate aminotransferase (AST) after 3-day treatment.
Description: as §1, §2

The test system of data set [3] is rat liver. The data set is described as follows: Serum clinical chemistry: alkaline phosphatase (ALP) after 3-day treatment.
Description: as §1, §2

The subject of data set [4] is rat liver. The data set is described as follows: Serum clinical chemistry: total bilirubin (Tbil) after 3-day treatment.
Description: as §1, §2

Data set [5] deals with rat liver. The experiment in a line: Serum clinical chemistry: cholesterol (Chol) after 3-day treatment.
Description: as §1, §2

In data set [6] the test system is rat liver. The settings on record: for Pathological observations in liver: model false positive.
Description: as §1

In data set [7] the test system is rat liver. The data set is described as follows: Hepatotoxicity score (HS) combined from five clinical chemistry measurements, threshold -0.25. The settings on record: 3-day treatment.
The test system of data set [8] is rat liver. The settings on record: in vivo, 150 mg/kg/day.
[9] abbreviates: rat serum, dose 45 mg/kg/day, individual rats.
The mark [10] stands for this setting: rat serum, dose 450 mg/kg/day, individual rats.
The mark [11] stands for this setting: rat serum, dose 100 mg/kg, individual rats.
The mark [12] stands for this setting: rat serum, dose 1000 mg/kg, individual rats.
Where [13] appears, read: rat serum, dose .001 mg/kg/day, individual rats.
Where [14] appears, read: rat serum, dose 320 mg/kg/day, individual rats.
The mark [15] stands for this setting: rat serum, dose 1 mg/kg/day, individual rats.
[16] abbreviates: rat serum, dose 500 mg/kg/day, individual rats.
The mark [17] stands for this setting: rat serum, dose 50 mg/kg/day, individual rats.
[18] abbreviates: SD rats, 10 mg/kg/day, 3-day treatment, the other two of three treated rats.
The mark [19] stands for this setting: rat serum, dose 160 mg/kg, individual rats.
Setting [20] is: rat serum, dose 1600 mg/kg, individual rats.

Several values for one entry are separate records, joined by “and”; a condition that tells them apart may be missing. Equal entries are not always repeated. Where two headings read alike, the source gives them in different places.

The text below walks through data of patent US20050143628A1, “Methods for characterizing tissue or organ condition or status” (priority 2003, published 2005).

`O=C1NC(=O)C(c2ccccc2)(c2ccccc2)N1` [phenytoin]: the ALT in data set [1] (setting [9]) is 26.000 and 19.000; in data set [1] (setting [10]), 49.000 and 38.000 and 24.000. The AST in data set [2] (setting [9]) is 65.000 and 81.000; in data set [2] (setting [10]), 130.000 and 71.000 and 65.000. Besides, the ALP is 199.000 and 214.000 in data set [3] (setting [9]); 255.000 and 233.000 and 312.000 in data set [3] (setting [10]). Also, the TBil is 0.200 in data set [4] (setting [9]); 0.200 and 0.100 (2×) in data set [4] (setting [10]). Further, the Chol. in data set [5] (setting [9]) was 77.000 and 71.000; in data set [5] (setting [10]) it was 61.000 and 73.000 and 66.000.

As to penicillin, the ALT was 51.000 and 41.000 and 44.000 in data set [1] (setting [11]); 52.000 (2×) and 25.000 and 42.000 in data set [1] (setting [12]). In addition, the AST was 127.000 and 144.000 in data set [2] (setting [11]); 134.000 (2×) and 80.000 and 90.000 in data set [2] (setting [12]). The ALP was 290.000 and 247.000 in data set [3] (setting [11]); 215.000 (2×) and 247.000 and 253.000 in data set [3] (setting [12]). The TBil in data set [4] (setting [11]) and in data set [4] (setting [12]) was 0.100 throughout. The Chol. in data set [5] (setting [11]) is 49.000 and 37.000 and 69.000; in data set [5] (setting [12]), 41.000 (2×) and 43.000 and 73.000.

On to `CC/C(=C(\c1ccccc1)c1ccc(OCCN(C)C)cc1)c1ccccc1` [tamoxifen, reference compound], for which the “Histopathology examination of liver” value in data set [6] (rat, in vivo, 5 mg/kg/day) was “no observable liver abnormality”.

Take TNFalpha: the ALT in data set [1] (setting [13]) was 53.000 and 48.000 and 55.000. In addition, the AST in data set [2] (setting [13]) was 70.000 (2×) and 59.000. For the same molecule, the ALP in data set [3] (setting [13]) is 728.000 and 255.000 and 312.000. In addition, in data set [4] (setting [13]), the TBil was 0.200 (2×) and 0.100. In addition, the Chol. in data set [5] (setting [13]) was 50.000 and 60.000 (2×).

For the molecule microcystin, the ALT in data set [1] (rat, in vivo) is 140.000 and 258.000 and 144.000. The AST in data set [2] (rat, in vivo) was 204.000 and 384.000 and 296.000. For the same molecule, in data set [3] (rat, in vivo), the ALP was 518.000 and 427.000 and 514.000. In data set [4] (rat, in vivo), the TBil was 0.600 and 0.400. Moreover, in data set [5] (rat, in vivo), the Chol. is 84.000 and 67.000 and 95.000.

Consider `Cn1c(=O)c2[nH]cnc2n(C)c1=O` [theophylline], for which the TBil in data set [4] (rat, in vivo, 75 mg/kg) was 0.100.

For `CCN(CC)N=O` [diethylnitrosamine], the “Pathological observations in liver” value in data set [6] (100 mg/kg/day treated group, 3-day treatment) was “noticeable pathological changes”.

For the molecule `C1CCC(C(CC2CCCCN2)C2CCCCC2)CC1` (centres unmarked) [perhexilene, reference compound], the ALT in data set [1] (setting [14]) was 51.000 and 129.000 and 31.000. Besides, in data set [2] (setting [14]), the AST was 103.000 and 116.000 and 98.000. In data set [3] (setting [14]), the ALP is 248.000 and 340.000 and 245.000. Moreover, in data set [4] (setting [14]), the TBil is reported as 0.100. The Chol. in data set [5] (setting [14]) was 45.000 and 44.000 and 66.000.

`CN(C)C=O` [dimethlformamide]: the “Pathological observations in liver” value in data set [6] (1000 mg/kg/day treated group, 3-day treatment) was “noticeable pathological changes”.

Take `CN(C)C(=N)N=C(N)N` [metformin]: in data set [6] (rat, in vivo, 900 mg/kg/day), the “Histopathology examination of liver” value is reported as “no observable liver abnormality”. The “Liver damage call by hepatotoxicity score versus individual clinical chemistry measures” value in data set [7] (one SD rat, 900 mg/kg/day) was “false negatives”.

As to `CC[C@H]1/C=C/C=C/C[C@@H](C)[C@H](O)[C@@](C)(O)C(=O)[C@@H](C)[C@H](O)[C@@H](C)C(=O)[C@@H](C)[C@H](O)[C@@H](C)/C=C/C(=O)O[C@@H]2[C@H](C)[C@H](CC1)O[C@]1(CC[C@H](C)[C@H](C[C@@H](C)O)O1)[C@H]2C` [oligomycin], in data set [1] (setting [15]), the ALT was 44.000 and 46.000 and 58.000. The AST in data set [2] (setting [15]) is 72.000 (2×) and 75.000. Also, in data set [3] (setting [15]), the ALP is 361.000 and 289.000 and 397.000. Further, the TBil in data set [4] (setting [15]) worked out at 0.200. Further, the Chol. in data set [5] (setting [15]) was 47.000 and 72.000 and 59.000.

As for `CC1=C(/C=C/C(C)=C/C=C/C(C)=C/CO)C(C)(C)CCC1` [Retinol], the ALT in data set [1] (setting [16]) is 27.000 and 31.000 and 37.000. In data set [2] (setting [16]), the AST is 88.000 and 157.000 and 112.000. The ALP in data set [3] (setting [16]) was 259.000 and 241.000 and 348.000. For the same molecule, the TBil in data set [4] (setting [16]) was 0.200. In addition, the Chol. in data set [5] (setting [16]) was 67.000 and 50.000 and 47.000.

`CC(C)(C)c1ccc(C(O)CCCN2CCC(C(O)(c3ccccc3)c3ccccc3)CC2)cc1` (centres unmarked) [terfenadine]: the TBil amounted to 0.100 in data set [4] (rat, in vivo, 15 mg/kg) and 0.100 in data set [4] (rat, in vivo, 150 mg/kg).

With aflatoxin B, the ALT in data set [1] (rat, in vivo) was 81.000 and 48.000 and 59.000. Moreover, the AST in data set [2] (rat, in vivo) is 206.000 and 132.000 and 156.000. Also, the ALP in data set [3] (rat, in vivo) is 297.000 and 166.000 and 217.000. Further, the TBil in data set [4] (rat, in vivo) was found to be 0.200. Further, the Chol. in data set [5] (rat, in vivo) is 64.000 and 75.000 and 63.000.

`CN1C(=O)CN=C(c2ccccc2)c2cc(Cl)ccc21` [diazepam]: the TBil in data set [4] (rat, in vivo) is listed as 0.100.

Regarding `CCSCC[C@H](N)C(=O)O` [L-ethionine], the “Pathological observations in liver” value in data set [6] (50 mg/kg/day treated group, 3-day treatment) is on record as “noticeable pathological changes”.

Consider `CC(=O)Oc1ccccc1C(=O)O` [aspirin], for which, in data set [6] (rat, in vivo, 150 mg/kg/day), the “Histopathology examination of liver” value is “Cellular abnormality”. The “Liver damage call by hepatotoxicity score versus individual clinical chemistry measures” value in data set [8] is “positives detected by the hepatotoxicity score”.

On to `C[C@H]1C(=O)O[C@@H]2CCN3CC=C(COC(=O)[C@](C)(O)[C@]1(C)O)[C@H]23` [monocrotaline, reference compound], for which the ALT in data set [1] (setting [17]) is 44.000 and 64.000 and 610.000. Also, the AST in data set [2] (setting [17]) is 123.000 and 135.000 and 270.000. In data set [3] (setting [17]), the ALP was 194.000 and 211.000 and 298.000. In addition, the TBil in data set [4] (setting [17]) was 0.200 (2×) and 1.500. Moreover, the Chol. in data set [5] (setting [17]) is 54.000 and 61.000 and 69.000. Also, the “Histopathology examination of liver” value in data set [6] (SD rat, 50 mg/kg/day, 3-day treatment, HS false negative sample) was “no observable liver abnormality”. Moreover, the “Liver damage call by hepatotoxicity score versus individual clinical chemistry measures” value in data set [7] (one SD rat, high dose 50 mg/kg/day) is reported as “false negatives”.

Regarding `C[C@]12CC[C@@H]3c4ccc(O)cc4CC[C@H]3[C@@H]1CC[C@@H]2O[C@@H]1O[C@H](C(=O)O)[C@@H](O)[C@H](O)[C@H]1O` [estradiol glucuronide], the “Liver injury by ALT” value in data set [1] (setting [18]) is “showed liver injury”. In data set [3] (setting [18]), the “Liver injury by ALP” value was “showed liver injury”. The “Histopathology examination of liver” value in data set [6] (SD rats, 10 mg/kg/day treatment group, 3-day treatment) is given as “Cellular abnormality”. Also, the “Liver damage call by hepatotoxicity score versus individual clinical chemistry measures” value in data set [7] (SD rat, high dose 10 mg/kg/day) is “positives detected by the hepatotoxicity score”.

With `CN[C@@H]1[C@H](O)[C@H](NC)[C@H]2O[C@@]3(O)C(=O)C[C@@H](C)O[C@H]3O[C@@H]2[C@H]1O` [spectinomycin], the ALT is 52.000 and 36.000 and 46.000 in data set [1] (setting [19]); 60.000 and 44.000 and 30.000 in data set [1] (setting [20]). Further, the AST was 83.000 and 74.000 and 70.000 in data set [2] (setting [19]); 98.000 and 95.000 and 86.000 in data set [2] (setting [20]). The ALP in data set [3] (setting [19]) is 174.000 and 181.000; in data set [3] (setting [20]), 246.000 and 189.000 and 176.000. Besides, the TBil in data set [4] (setting [19]) and in data set [4] (setting [20]) was 0.100 each time. Also, the Chol. in data set [5] (setting [19]) was 60.000 and 59.000 and 54.000; in data set [5] (setting [20]), 36.000 and 62.000 and 26.000.
